For one test, the system named is COV318. The test can be described thus: drug sensitivity score (DSS) from 5-point dose-response viability curve (DSS (area-under-curve based score)); higher = more sensitive (stronger growth inhibition or killing); extreme values may be limits of the assay. The conditions noted are these: exposure time: 72 h; concentration range: 5 concentrations over 10,000-fold range. The method in brief: (§1)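 Ovarian cancer and normal ovarian cell lines were tested in 384-well plates. Drugs were acoustically dispensed (Echo 550) in DMSO or water at five concentrations spanning a 10,000-fold range, then 1,500 cells per well were added and incubated 3 days at 37°C, 5% CO2. Viability was read by CellTiter-Glo luminescence on a PHERAstar FS. Drug sensitivity score was derived per cell line and drug with Breeze software; higher means more sensitive, zero means no response.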
Consider `C[C@@]1(C(=O)Nc2ccc(F)nc2)CCCN1c1nc(Nc2cc(C3CC3)n[nH]2)c2cccn2n1`, for which the drug sensitivity score is 3.1. In turn, `Nc1nc2[nH]cc(CCc3ccc(C(=O)N[C@@H](CCC(=O)O)C(=O)O)cc3)c2c(=O)[nH]1` [Pemetrexed] displayed a drug sensitivity score of 0. Take `CCC(C)n1ncn(-c2ccc(N3CCN(c4ccc(OCC5COC(Cn6cncn6)(c6ccc(Cl)cc6Cl)O5)cc4)CC3)cc2)c1=O` (stereo unspecified) [Itraconazole]: the drug sensitivity score is 0.9. Take `NCC(=O)Nc1ccc(-n2nc(C(F)(F)F)cc2-c2ccc3c(ccc4ccccc43)c2)cc1`: the drug sensitivity score stood at 2.8.

Compound `O=C1CN2Cc3c(ccc(Cl)c3Cl)N=C2N1` [Anagrelide] gave a drug sensitivity score of 0. On the same count and under the same terms, the figure for `CN1CCC(COc2cnc(-c3cccc(Cn4nc(-c5cccc(C#N)c5)ccc4=O)c3)nc2)CC1` [Tepotinib] is 0; for `Cc1cc2c(F)c(Oc3ncnn4cc(OC[C@@H](C)O)c(C)c34)ccc2[nH]1` [Brivanib] it is 0; for `COc1cc2c(NC3CCN(C(C)C)CC3)nc(N3CCC(F)(F)CC3)nc2cc1OCCCN1CCCC1` [UNC0642] it is 0. In turn, `Nc1ccn([C@@H]2O[C@H](CO)[C@@H](O)C2(F)F)c(=O)n1` [Gemcitabine] returned a drug sensitivity score of 3.5. For `Cc1ccc(C(=O)Nc2ccc(CN3CCN(C)CC3)c(C(F)(F)F)c2)cc1C#Cc1cnc2cccnn12` [Ponatinib], the drug sensitivity score amounted to 5.7. On to `Oc1ccc2c(c1)CC[C@H](c1ccccc1)[C@@H]2c1ccc(OCCN2CCCC2)cc1` [Lasofoxifene], for which the drug sensitivity score is 0. The compound `NCCNc1ccc(NCCN)c2c1C(=O)c1ccncc1C2=O` [Pixantrone] had a drug sensitivity score of 0.

For the compound `COc1cc(Nc2ncc(F)c(Nc3ccc4c(n3)N(COP(=O)(O)O)C(=O)C(C)(C)O4)n2)cc(OC)c1OC` [Fostamatinib], the drug sensitivity score is 1.5.

As for `C=CC(=O)Nc1cccc(Nc2nc(Nc3ccc(N4CCN(C(C)=O)CC4)cc3OC)ncc2C(F)(F)F)c1` [Rociletinib], the drug sensitivity score came to 2.6. Same read-out and setting: the same measure for `O=C(O)c1ccc(O)c2ncccc12` [IOX-1]: 0.

In the case of `CCCCCOC(=O)Nc1nc(=O)n([C@@H]2O[C@H](C)[C@@H](O)[C@H]2O)cc1F` [Capecitabine], the drug sensitivity score amounted to 0. Still for that read-out and setting: the figure for `COc1ccc2[nH]cc(/C=C3\C(=O)Nc4ccc(NC(=O)CCN5CCCCC5)cc43)c2c1` is 5.4. With `CNC(=O)c1nn(C)c2c1C(C)(C)Cc1cnc(Nc3ccc(N4CCN(C)CC4)cc3)nc1-2` [Milciclib], the drug sensitivity score was found to be 6.5.

Consider `C[C@H]1C[C@@H]2[C@H]([C@@H](O)C[C@@]3(C)[C@H]2CC[C@]3(O)C(=O)CO)[C@@]2(C)C=CC(=O)C=C12` [Methylprednisolone], for which the drug sensitivity score was 1.3.

`CCc1c(C(=O)C(N)=O)c2c(OCC(=O)O)cccc2n1Cc1ccccc1` [Varespladib] came in with a drug sensitivity score of 0. Regarding `Cc1ccc(C(=O)Nc2ccc(Oc3cc4cnn(C)c4cc3-c3cn[nH]c3)c(F)c2)c(=O)n1-c1ccc(F)cc1` [Merestinib], the drug sensitivity score worked out at 0.

On to `Clc1ccccc1C(c1ccccc1)(c1ccccc1)n1cccn1` [TRAM-34], for which the drug sensitivity score was 0. In turn, `Cc1cc(Nc2cc(N3CCN(C)CC3)nc(/C=C/c3ccccc3)n2)n[nH]1` [ENMD-2076] came in with a drug sensitivity score of 4.9. For `O=C(Nc1cccc(Nc2ncc(Br)c(NCCc3cnc[nH]3)n2)c1)N1CCCC1` [BX-912], the drug sensitivity score came to 0.4. As to `COc1cc(OC)c(/C=C/S(=O)(=O)Cc2ccc(OC)c(NCC(=O)O)c2)c(OC)c1` [Rigosertib], the drug sensitivity score worked out at 11.7. In the case of `CCS(=O)(=O)c1cccc(-c2cc(C(=O)NC3CCN(C)CC3)c(C)c3[nH]c4ncc(C)cc4c23)c1` [TAK-901], the drug sensitivity score turned out to be 1.4. The compound `CC(C)NC(=O)COc1cccc(-c2nc(Nc3ccc4[nH]ncc4c3)c3ccccc3n2)c1` [KD025] came in with a drug sensitivity score of 0. `COc1cccc(-c2ccc(NC(=O)C3=C(C(=O)O)CCC3)c(F)c2)c1` [Vidofludimus] gave a drug sensitivity score of 0. In turn, `C=CCN(/C=C1/C(=O)O[C@H](COC)[C@@]2(C)C1=C(O)C(=O)C1=C2[C@H](OC(C)=O)C[C@]2(C)C(=O)CC[C@@H]12)CC=C` [Sonolisib] displayed a drug sensitivity score of 0.

Regarding `C=C(c1ccc(C(=O)O)cc1)c1cc2c(cc1C)C(C)(C)CCC2(C)C` [Bexarotene], the drug sensitivity score worked out at 0.1. `CC1CCC(n2c3cnccc3c3cnc(Nc4ccc5c(n4)CCN(C(=O)CO)C5)nc32)CC1` (stereo unspecified) [AMG-925] had a drug sensitivity score of 0.

A further test deals with OVCAR4. Described as above. The conditions noted are these: exposure time: 72 h; concentration range: 5 concentrations over 10,000-fold range. The method in brief:
as §1
As to `C[C@@]1(C(=O)Nc2ccc(F)nc2)CCCN1c1nc(Nc2cc(C3CC3)n[nH]2)c2cccn2n1`, the drug sensitivity score turned out to be 7.2. The compound `Nc1nc2[nH]cc(CCc3ccc(C(=O)N[C@@H](CCC(=O)O)C(=O)O)cc3)c2c(=O)[nH]1` [Pemetrexed] displayed a drug sensitivity score of 4.2. On to `CCC(C)n1ncn(-c2ccc(N3CCN(c4ccc(OCC5COC(Cn6cncn6)(c6ccc(Cl)cc6Cl)O5)cc4)CC3)cc2)c1=O` (stereo unspecified) [Itraconazole], for which the drug sensitivity score came to 2.1. `NCC(=O)Nc1ccc(-n2nc(C(F)(F)F)cc2-c2ccc3c(ccc4ccccc43)c2)cc1` yielded a drug sensitivity score of 0. The compound `O=C1CN2Cc3c(ccc(Cl)c3Cl)N=C2N1` [Anagrelide] came in with a drug sensitivity score of 0. For the compound `CN1CCC(COc2cnc(-c3cccc(Cn4nc(-c5cccc(C#N)c5)ccc4=O)c3)nc2)CC1` [Tepotinib], the drug sensitivity score stood at 0. `Cc1cc2c(F)c(Oc3ncnn4cc(OC[C@@H](C)O)c(C)c34)ccc2[nH]1` [Brivanib] yielded a drug sensitivity score of 0. The compound `COc1cc2c(NC3CCN(C(C)C)CC3)nc(N3CCC(F)(F)CC3)nc2cc1OCCCN1CCCC1` [UNC0642] displayed a drug sensitivity score of 0. On to `Nc1ccn([C@@H]2O[C@H](CO)[C@@H](O)C2(F)F)c(=O)n1` [Gemcitabine], for which the drug sensitivity score is 0. Compound `Cc1ccc(C(=O)Nc2ccc(CN3CCN(C)CC3)c(C(F)(F)F)c2)cc1C#Cc1cnc2cccnn12` [Ponatinib] came in with a drug sensitivity score of 5.7.

`Oc1ccc2c(c1)CC[C@H](c1ccccc1)[C@@H]2c1ccc(OCCN2CCCC2)cc1` [Lasofoxifene] returned a drug sensitivity score of 0. In the case of `NCCNc1ccc(NCCN)c2c1C(=O)c1ccncc1C2=O` [Pixantrone], the drug sensitivity score came to 0. On to `COc1cc(Nc2ncc(F)c(Nc3ccc4c(n3)N(COP(=O)(O)O)C(=O)C(C)(C)O4)n2)cc(OC)c1OC` [Fostamatinib], for which the drug sensitivity score turned out to be 2.9. For the compound `C=CC(=O)Nc1cccc(Nc2nc(Nc3ccc(N4CCN(C(C)=O)CC4)cc3OC)ncc2C(F)(F)F)c1` [Rociletinib], the drug sensitivity score was 3. On the same count and under the same terms, the figure for `O=C(O)c1ccc(O)c2ncccc12` [IOX-1] is 1.5.

These data come from the supplement of paper PMC11616607.
